From ChEMBL document CHEMBL1151529, “Conformationally constrained analogues of DAG.7. Interaction of a medium-size -lactone with protein kinase C (PK-C)_” (Bioorg Med Chem Lett, 1994)

Assays:
[1] = Displacement of [3H]phorbol-12,13-dibutyrate from mouse brain protein kinase C
[2] = target: Protein kinase C alpha type (Rattus norvegicus, UniProt P05696); experiment: Displacement of [3H]phorbol-12,13-dibutyrate from rat brain protein kinase C alpha

SMILES	Ki [1] [µM]	Ki [2] [µM]
CCCCCCCCCCCCCC(=O)O[C@H]1CC(=O)O[C@@H]1CO	5.3	–
CCCCCCCCCCCCCC(=O)O[C@H]1CCC(=O)O[C@@H]1CO	30.5	–
CCCCCCCCCCCCCC(=O)O[C@@H]1CCCC(=O)O[C@H]1CO	–	41

Further lines, results first:

Ki [1] [µM]	Ki [2] [µM]	SMILES
2.5	–	CCCCCCCCCCCCCC(=O)O[C@@H]1CC(=O)O[C@H]1CO
2.8	–	CCCCCCCCCCCCCC(=O)O[C@@H]1CCC(=O)O[C@H]1CO
